Source: patent US6262095A, “Use of tricyclic derivatives of 1,4-dihydro-1,4-dioxo-1H-naphthalene, novel compounds obtained and their application in theraphy” (Laboratoire Innothera, priority 1995, dated 2001)

Columns and labels:
[1] = tested on: hyperpermeability induced by histamine in rats; experiment: Hyperpermeability induced by histamine in rats; format: in vivo, rat (Wistar); conditions: rat, oral 0.1 mg/kg, after 2 h, compared to the control group
Method: The vascular permeability is studied in vivo by measuring the extravasation of albumin, the quantity of which is determined using an albumin-binding dye (Evans blue).
The hyperpermeability is induced by the intradermal injection of a solution of histamine, bradykinin, or zymosan.
The technique is derived from that described by Beach & Steinetz, J. Pharmacol. Exp. Therap., 1961, Vol. 131: pp. 400-406.
The abdominal walls of the rats (Wistar, 200-230 g) are shorn 1 h before the start of the experiment. The product to be tested is injected by the intraperitoneal route or orally 1-4 h before the sacrifice. The rats are anesthetized with a halothane mixture. […]
At the site of the injection of the inflammatory agent, the skin is cut and placed into glass tubes with a ground[-glass] neck containing 3 mL of fuming hydrochloric acid. […] The optical densities are quantified by absorption spectrophotometry at a wavelength of 620 nm, against a blank [control] containing only dichloromethane. The averages of the optical densities of the different lots of treated or control animals are calculated, then a percentage of variation of the values corresponding to the treated [experimental] animals compared to those of the control animals is calculated.

jugular vein of rabbits = experiment: Contraction of rabbit jugular vein under depolarizing hyperpotassic conditions; format: cell-based; conditions: Oryctolagus cuniculus, pH 7.4, read-out: ED50 (contraction)
Method: (§1) The contractile effects are measured in vitro under static conditions on vascular capacitance or resistance rings of saphenous, femoral, jugular, mesenteric, and caval veins . . . and on femoral, carotid, basilar, or mesenteric arteries, as well as the thoracic or abdominal aorta . . . in rats (Wistar, 200-250 g), rabbits (New Zealand, 2-2.5 kg), guinea pigs (Dunkin Hartley 250-300 g).
(§2) The rings are placed in a chamber for isolated organs (25 mL for capacitance vessels and 2.5 mL for resistance vessels according to Mulvany), and maintained under isometric conditions using two rigid threads inserted inside the vessel, avoiding causing damage to the endothelium. The vessels are bathed in a modified Krebs solution (in mM: NaCl=118; KCl=4.6; CaCl2 =2.5; MgSO4 =1.2; KH2 PO4 =1.17; NaHCO3 =25; glucose=11), continuously aerated using a gaseous mixture of 95% O2 and 5% Co2, at a pH=7.4, and regulated by thermostat at 37° C. The rings are adjusted to their optimal point as far as the tension-length relationship is concerned. […] The pharmacological studies are carried out after a few standardized preliminary contractile stimulations using a depolarizing solution (hyperpotassic type obtained by replacing NaCl with KCl in equimolar quantities), along with rinsings and periods of equilibration in a pure physiological solution. […]

[2] = tested on: saphenous vein in rabbits; experiment: Potentiation of the contractile response of the rabbit saphenous vein to noradrenaline; format: cell-based
Method: as §1, §2

[3] = tested on: carotid arteries of rabbits; experiment: Contraction of rabbit carotid arteries under depolarizing hyperpotassic conditions; format: cell-based; conditions: Oryctolagus cuniculus, pH 7.4, read-out: ED50 (contraction)
Method: as §1, §2

[4] = tested on: saphenous vein in rabbits; experiment: Potentiation of the contractile response of the rabbit saphenous vein to serotonin; format: cell-based
Method: as §1, §2

mice = experiment: Single oral administration toxicity in mice; format: in vivo, mouse; conditions: single oral administration, 1 g/kg
Source text: Moreover, the compounds of the invention and their possible salts have a very low toxicity.

[5] = tested on: arterial pressure of the conscious rat; experiment: Arterial pressure of the conscious rat; format: in vivo; conditions: oral 0.1-5-50 mg/kg
Method: (§3) In the conscious animal, the arterial pressures are measured according to the classical method derived from Riva Rocci, by the analysis of the acoustical wave transmitted at the arterial level and transformed by a ceramic piezo transducer placed on the tail of the rat, downstream from a sleeve that is automatically inflated by a pressure generator. At the microcirculatory level, the variations in the sections of the veinules and arterioles are studied in vivo in the model of the dorsal cutaneous chamber of conscious hamsters, after a video microscopic recording (microscope Leitz Ergolux equipped with a halogen source for the illumination and its black-and-white CD video camera HPR 610) and computer analysis (software Visicap, Pack ICAP) of the images.

[6] = tested on: dorsal cutaneous chamber in hamsters; experiment: Dorsal cutaneous chamber in hamsters (microcirculation, histamine); format: in vivo; conditions: hamster, 28 mg/kg i.v. bolus, after histamine 1 mg/kg i.v.
Method: as §3
After anesthesia with sodium pentobarbital (60 mg/kg in i.p. administration), the back of the animal is shaved and hair is pulled so as to be able to put an observation chamber (Professor Gebhard, Heidelberg) on the back skin. The two parts of this chamber are sewn after careful removal of a certain level of skin thicknesses, which can impede the observation. A jugular catheter is placed for the i.v. administration of the products, 48 h after the operation.
The effect of the compounds on the hyperpermeability induced by inflammatory agents, such as histamine and bradykinin, is also studied after intravenous injection in a bolus in the model of the dorsal cutaneous chamber of hamsters and according to the method developed by Gimeno et al., described earlier ("A new technique using intravital videomicroscopy for macromolecular permeability measurement," 18th European Congress on Microcirculation, Rome, 1994) using videomicroscopy and image analysis by quantification of the distribution of the intra- and extravascular fluorescence of the fluorescent marker (FITC-Dextran) injected in a bolus through the jugular catheter (63 mg/kg for a volume defined at 1 mL/kg). The microscope is equipped with a fluorescence source and a combination of filters (excitation in the blue range 450-490 nm, and 515-nm stop filter).

SMILES: O=C1c2ccccc2C(=O)c2sc(-c3ccco3)nc21 [Example n, 4,9-Dihydro-4,9-dioxo-2-(2-furyl)-naphtho[2,3-d]thiazole]
- decrease of hyperpermeability induced by histamine [1]: 26%
- EC50 (jugular vein of rabbits): 16 nM
- change of noradrenaline ED50 [2]: reduced by a factor of ten
- Emax ([2]; Oryctolagus cuniculus, read-out: increase of noradrenaline Emax): 30%
- EC50 [3]: 120 nM
- contractile response due to serotonin [4]: selectively potentiates
- observed signs (mice): red urine
- toxic effect and mortality (mice): no observable toxic effect and no mortality
- arterial pressure [5]: does not affect the arterial pressure
- arteriolar diameter [6]: not the arteriolar diameter
- histamine-induced vascular hyperpermeability [6]: reduces the vascular hyperpermeability
- veinule diameter [6]: reduces the veinule diameter
